Test results taken from patent US9795675B2, “Light-activatable polymeric nanoparticles” (CNC—CENTRO DE NEUROCIÊNCIAS E BIOLOGIA CELULAR, priority 2013, dated 2017).

Columns and labels:
[1] = test system: U937 cells; assay: NP uptake in the presence of endocytosis inhibitors (FACS); assay type: cell-based, human; details: dynasor 80 μM; TRITC-labelled NPs 5 μg/mL
Procedure: (§1) Uptake mechanisms analysis. For determining the uptake mechanism(s), we first perform NP uptake assays in the presence of endocytosis inhibitors. U937 cells were cultured on 24 well plates (1×10^5 cells/well) and inhibited by one of the following chemicals during 30 min before adding a suspension of TRITC-labelled NPs (5 μg/mL): dynasor (80 μM), cytochalasin D (10 μM), nocodazole (50 uM), filipin III (100 μM) and polyinosinic acid (100 μg/mL). The inhibitor concentrations were based in values reported in literature and further validated by us to have no cytotoxic effect over the period of the assay (6 h), as confirmed by ATP assay. The incubation of the cells with NPs for different times was performed in the presence of the inhibitor. As controls, we used cells without NPs and cells incubated with NPs without inhibitor. At the end of each time point, cells were centrifuged at 1300 rpm, 2° C. for 5 min with PBS, washed one time with cold trypan blue solution (200 μL; 600 μg/mL), re-washed 3 times with cold PBS and then resuspended in PBS containing 2.5% FBS (500 μL) for FACS analysis. A total of 10,000 events were obtained per measurement. To validate the inhibitory activity of dynasor we performed uptake studies of FITC-labeled transferrin, known to selectively enter cells via clatherin-mediated endocytosis. […] Cells were then evaluated as before.

[2] = test system: U937 cells; assay: Uptake of FITC-labeled transferrin (validation of dynasor); assay type: cell-based, human; details: dynasor 80 μM, 30 min pre-incubation
Procedure: as §1

[3] = test system: patients; details: cited from earlier work
[4] = test system: K562, NB4 and U937 cells; assay: Retinoic acid uptake assay ([3H]RA, scintillation counting); assay type: cell-based, human
Procedure: Experiments were initiated by the addition of medium containing [^3H]RA (1 μM and 10 μM) and [^3H]RA-NPs (1 μg/mL and 10 μg/mL) to cultures (60,000 cells/condition, 24-well plate, 1 mL) of K562, NB4 and U937 cells. After experimental incubations with medium containing [^3H]RA and [^3H]RA-NPs for 4, 24 and 72 hours, cells were collected to eppendorfs, washed with PBS by centrifugation (1500 rpm, 5 min, 2 times) to remove non-internalized [^3H]RA and then resuspend in 100 μL of lysis buffer (see above) and kept on ice until scintillation counting procedure.
The titrium content of the samples was assayed by adding 100 μL aliquot of the samples to 1 mL liquid scintillation fluid (Packard Ultima Gold) and counted in a TriCarb 2900 TR Scintillation analyzer (Perkin Elmer). All conditions were performed in triplicate.

## O=C(N/N=C/c1ccc(O)c(O)c1)c1cc2ccccc2cc1O [Dynasore]
[1]
  reduction of the uptake of NPs compared to control cells: 90%
[2]
  internalisation of FITC-labeled transferrin: inhibits the internalisation of transferrin

## CC1=C(/C=C/C(C)=C/C=C/C(C)=C/C(=O)O)C(C)(C)CCC1 [RA, retinoic acid]
[3]; human, in vivo
  patients receiving RA who develop serious complications including the differentiation syndrome: approximately 25%
[3]; up to
  patients in whom the dose of RA leads to hyperleukocytosis and respiratory distress syndrome: 20-30%
[4]
  time of peak RA uptake: 24 h

## CC1=C(/C=C/C(C)=C/C=C/C(C)=C/C(=O)O)C(C)(C)CCC1 [[^3H]RA]
[4]; [^3H]RA 1 and 10 uM or [^3H]RA-NPs 1 and 10 ug/mL, for 4 hours, measured after 24 and 72 hours
  uptake yield of [^3H]RA: below 2%
